Experimental data reported in PubChem BioAssay (NCI).
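Each compound was tested at five concentrations against cells in 96-well plates for 48 hours. GI50 marks 50% less growth. The concentration for full growth arrest is given as TGI.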

Tests used:
Experiment in all cases: growth of human tumour cells (NCI), 48 h
[1] = test system: MDA-MB-435
[2] = test system: SNB-19 CNS
[3] = test system: MCF7 breast
[4] = test system: U251 CNS
[5] = test system: TK-10 renal
[6] = test system: OVCAR-8 ovarian
[7] = test system: UO-31 renal
[8] = test system: SF-539 CNS
[9] = test system: HT29 colon
[10] = test system: M14 melanoma
[11] = test system: COLO 205 colon
[12] = test system: SW-620 colon
[13] = test system: UACC-257 melanoma
[14] = test system: MOLT-4 leukemia
[15] = test system: BT-549 breast
[16] = test system: RPMI-8226 leukemia
[17] = test system: SK-MEL-5 melanoma
[18] = test system: IGROV1 ovarian
[19] = test system: SN12C renal
[20] = test system: ACHN renal
[21] = test system: A498 renal
[22] = test system: HCT-116 colon
[23] = test system: OVCAR-4 ovarian
[24] = test system: RXF 393 renal
[25] = test system: A549 NSCLC
[26] = test system: MALME-3M melanoma
[27] = test system: CAKI-1 renal
[28] = test system: HOP-62 NSCLC
[29] = test system: KM12 colon
[30] = test system: HL-60(TB) leukemia
[31] = test system: T-47D breast
[32] = test system: UACC-62 melanoma
[33] = test system: SR leukemia
[34] = test system: HCT-15 colon
[35] = test system: 786-0 renal
[36] = test system: SF-268 CNS
[37] = test system: LOX IMVI melanoma
[38] = test system: SK-MEL-2 melanoma
[39] = test system: CCRF-CEM leukemia
[40] = test system: SF-295 CNS
[41] = test system: NCI-H23 lung
[42] = test system: DU-145 prostate
[43] = test system: SNB-75 CNS
[44] = test system: SK-MEL-28 melanoma
[45] = test system: OVCAR-3 ovarian
[46] = test system: PC-3 prostate
[47] = test system: HCC-2998 colon
[48] = test system: NCI-H522 lung
[49] = test system: MDA-MB-231 breast
[50] = test system: EKVX NSCLC
[51] = test system: NCI-H226 lung
[52] = test system: OVCAR-5 ovarian
[53] = test system: SK-OV-3 ovarian
[54] = test system: HS 578T breast
[55] = test system: K-562 leukemia
[56] = test system: NCI/ADR-RES ovarian
[57] = test system: HOP-92 NSCLC
[58] = test system: NCI-H460 lung

## c1ccc(-c2ccc(-c3ccc(C4=NCCN4)cc3)o2)cc1
[1]
  TGI: 3.84 µM
[2]
  TGI: 6.3 µM
[3]
  TGI: 3.68 µM
[4]
  TGI: 3.93 µM
[5]
  TGI: 11.4 µM
[6]
  TGI: 15.2 µM
[7]
  TGI: 3.14 µM
[8]
  TGI: 4.4 µM
[9]
  TGI: 4.94 µM
[10]
  TGI: 3.1 µM
[11]
  TGI: 3.31 µM
[12]
  TGI: 4.42 µM
[13]
  TGI: 4.89 µM
[14]
  TGI: 4.59 µM
[15]
  TGI: 17.3 µM
[16]
  TGI: 2.88 µM
[17]
  TGI: 3.92 µM
[18]
  TGI: 7.52 µM
[19]
  TGI: 11.4 µM
[20]
  TGI: 7.97 µM
[21]
  TGI: 3.65 µM
[22]
  TGI: 3.42 µM
[23]
  TGI: 15 µM
[24]
  TGI: 6.53 µM
[25]
  TGI: 7.8 µM
[26]
  TGI: 2.17 µM
[27]
  TGI: 5.36 µM
[28]
  TGI: 12.3 µM
[29]
  TGI: 4.43 µM
[30]
  TGI: 3.74 µM
[31]
  TGI: 7.06 µM
[32]
  TGI: 3.2 µM
[33]
  TGI: 7.43 µM
[34]
  TGI: 4.19 µM
[35]
  TGI: 3.1 µM
[36]
  TGI: 8.4 µM
[37]
  TGI: 4.01 µM
[38]
  TGI: 3.51 µM
[39]
  TGI: 4.46 µM
[40]
  TGI: 3.82 µM
[41]
  TGI: 17.5 µM
[42]
  TGI: 10.3 µM
[43]
  TGI: 5.17 µM
[44]
  TGI: 3.75 µM
[45]
  TGI: 18 µM
[46]
  TGI: 5.54 µM
[47]
  TGI: 2.81 µM
[48]
  TGI: 4.21 µM
[49]
  TGI: 3.89 µM
[50]
  TGI: 10.8 µM
[51]
  TGI: 6.15 µM
[52]
  TGI: 7.9 µM
[53]
  TGI: 11.5 µM
[54]
  TGI: 2.8 µM
[55]
  TGI: 3.44 µM
[56]
  TGI: 19.7 µM
[57]
  TGI: 5.03 µM

## c1ccc(-c2n(Cc3ccc4ccccc4n3)cc[n+]2Cc2ccc3ccccc3n2)cc1
[1]
  GI50: 1.8 µM
  TGI: 10.2 µM
[2]
  GI50: 2.18 µM
  TGI: 13.1 µM
[3]
  GI50: 1.87 µM
  TGI: 11.1 µM
[4]
  GI50: 2.66 µM
  TGI: 12.4 µM
[5]
  GI50: 5.38 µM
  TGI: 18.3 µM
[6]
  GI50: 3.25 µM
  TGI: 13.9 µM
[7]
  GI50: 12.6 µM
  TGI: 39.2 µM
[8]
  GI50: 2.92 µM
  TGI: 13.2 µM
[9]
  GI50: 2.39 µM
  TGI: 11.5 µM
[10]
  GI50: 2.35 µM
  TGI: 11.5 µM
[11]
  GI50: 1.41 µM
  TGI: 4.05 µM
[12]
  GI50: 2.65 µM
  TGI: 14.5 µM
[13]
  GI50: 1.01 µM
  TGI: 5.21 µM
[14]
  GI50: 4.24 µM
  TGI: 17.2 µM
[15]
  GI50: 1.65 µM
  TGI: 8.48 µM
[16]
  GI50: 0.269 µM
  TGI: 5.09 µM
[17]
  GI50: 0.542 µM
  TGI: 1.85 µM
[18]
  GI50: 1.87 µM
  TGI: 16.4 µM
[19]
  GI50: 2.25 µM
  TGI: 11.2 µM
[21]
  GI50: 1.81 µM
  TGI: 10.1 µM
[22]
  GI50: 2.06 µM
  TGI: 11.4 µM
[23]
  GI50: 0.709 µM
  TGI: 7.02 µM
[24]
  GI50: 2.8 µM
  TGI: 14 µM
[25]
  GI50: 13.5 µM
  TGI: 51.1 µM
[26]
  GI50: 1.57 µM
  TGI: 8.02 µM
[28]
  GI50: 5.66 µM
  TGI: 20.8 µM
[29]
  GI50: 1.76 µM
  TGI: 10.5 µM
[30]
  GI50: 0.399 µM
  TGI: 1.7 µM
[58]
  GI50: 2.49 µM
  TGI: 11.9 µM
[31]
  GI50: 0.498 µM
  TGI: 7.77 µM
[32]
  GI50: 0.675 µM
  TGI: 4.17 µM
[33]
  GI50: 1.29 µM
  TGI: 13.2 µM
[34]
  GI50: 20.2 µM
  TGI: 85.6 µM
[35]
  GI50: 5.45 µM
  TGI: 18.5 µM
[36]
  GI50: 3.32 µM
  TGI: 14.7 µM
[37]
  GI50: 2.35 µM
  TGI: 10.8 µM
[38]
  GI50: 1.96 µM
  TGI: 5.96 µM
[39]
  GI50: 2.9 µM
  TGI: 14.7 µM
[40]
  GI50: 3.22 µM
  TGI: 14.5 µM
[41]
  GI50: 1.23 µM
  TGI: 9.58 µM
[42]
  GI50: 4.29 µM
  TGI: 18.5 µM
[43]
  GI50: 1.33 µM
  TGI: 5.07 µM
[44]
  GI50: 0.983 µM
  TGI: 12.9 µM
[45]
  GI50: 1.05 µM
  TGI: 12.1 µM
[46]
  GI50: 2.64 µM
  TGI: 12.1 µM
[47]
  GI50: 1.93 µM
  TGI: 11.7 µM
[48]
  GI50: 1.92 µM
  TGI: 8.72 µM
[49]
  GI50: 1.69 µM
  TGI: 8.58 µM
[50]
  GI50: 2.91 µM
  TGI: 31.4 µM
[51]
  GI50: 1.76 µM
  TGI: 9.72 µM
[52]
  GI50: 5 µM
  TGI: 21.5 µM
[53]
  GI50: 3.39 µM
  TGI: 11.8 µM
[54]
  GI50: 2.76 µM
  TGI: 14.3 µM
[55]
  GI50: 0.754 µM
  TGI: 13.6 µM
[56]
  GI50: > 100 µM
  TGI: > 100 µM
[57]
  GI50: 0.269 µM
  TGI: 2.47 µM

## CN(C)c1ccc2nc3ccc(=[N+](C)C)c([N+](=O)[O-])c-3sc2c1
[1]
  GI50: 2.46 µM
  TGI: 11.4 µM
[2]
  GI50: 0.483 µM
  TGI: 17.4 µM
[3]
  GI50: 1.79 µM
  TGI: 5.9 µM
[4]
  GI50: 1.21 µM
  TGI: 11.1 µM
[5]
  GI50: 7.46 µM
  TGI: 23.5 µM
[6]
  GI50: 1.87 µM
  TGI: 10.4 µM
[7]
  GI50: 5.98 µM
  TGI: 23.4 µM
[9]
  GI50: 6.04 µM
  TGI: 25.1 µM
[10]
  GI50: 1.32 µM
  TGI: 10.8 µM
[11]
  GI50: 1.7 µM
  TGI: 9.83 µM
[12]
  GI50: 2.57 µM
  TGI: 12.3 µM
[13]
  GI50: 2.85 µM
  TGI: 8.59 µM
[14]
  GI50: 2.3 µM
  TGI: 10.6 µM
[15]
  GI50: 8.29 µM
  TGI: 21.7 µM
[16]
  GI50: 0.536 µM
  TGI: 15.9 µM
[17]
  GI50: 1.44 µM
  TGI: 12.1 µM
[18]
  GI50: 2.56 µM
[19]
  GI50: 1.37 µM
  TGI: 5.26 µM
[21]
  GI50: 7.06 µM
  TGI: 21.9 µM
[22]
  GI50: 2.45 µM
  TGI: 13.2 µM
[23]
  GI50: 0.906 µM
  TGI: 3.04 µM
[24]
  GI50: 4.41 µM
  TGI: 18.1 µM
[25]
  GI50: 1.46 µM
  TGI: 18.1 µM
[26]
  GI50: 2.38 µM
  TGI: 8.97 µM
[27]
  GI50: 2.59 µM
  TGI: 13.1 µM
[28]
  GI50: 8.6 µM
  TGI: 22.2 µM
[29]
  GI50: 2.08 µM
  TGI: 16.4 µM
[30]
  GI50: 0.302 µM
  TGI: 4.7 µM
[58]
  GI50: 2.59 µM
  TGI: 15.2 µM
[31]
  GI50: 2.16 µM
  TGI: 7.47 µM
[32]
  GI50: 1.1 µM
  TGI: 3 µM
[33]
  GI50: 0.797 µM
  TGI: 17.5 µM
[35]
  GI50: 6.2 µM
  TGI: 21.4 µM
[36]
  GI50: 2.1 µM
  TGI: 13.2 µM
[37]
  GI50: 1.32 µM
  TGI: 7.85 µM
[38]
  GI50: 4.54 µM
  TGI: 16.1 µM
[39]
  GI50: 0.908 µM
  TGI: 15.4 µM
[40]
  GI50: 3.04 µM
  TGI: 16.6 µM
[41]
  GI50: 1.87 µM
  TGI: 9.65 µM
[42]
  GI50: 4.75 µM
  TGI: 18.3 µM
[43]
  GI50: 2.93 µM
  TGI: 13.3 µM
[44]
  GI50: 10.3 µM
  TGI: 22 µM
[45]
  GI50: 0.271 µM
  TGI: 0.926 µM
[46]
  GI50: 0.599 µM
  TGI: 6.78 µM
[47]
  GI50: 5.18 µM
  TGI: 16.8 µM
[48]
  GI50: 1.81 µM
  TGI: 5.19 µM
[49]
  GI50: 0.578 µM
  TGI: 4.46 µM
[50]
  GI50: 1.67 µM
  TGI: 16.2 µM
[51]
  GI50: 7.97 µM
  TGI: 22.4 µM
[53]
  GI50: 11.8 µM
  TGI: 28.9 µM
[54]
  GI50: 3.33 µM
  TGI: 26.1 µM
[55]
  GI50: 1.94 µM
  TGI: 19.4 µM
[56]
  GI50: 2.33 µM
  TGI: 8.13 µM
[57]
  GI50: 2.09 µM
  TGI: 11.3 µM
